Laboratory results taken from the Bradley open melting point set (2014).

Compound | melting point
OCC(CO)(CO)CO [Pentaerythritol] | 260 °C
CC(=O)CC(C)=O [Pentane-2,4-dione] | -23 °C
CCCCC [Pentane] | -130 °C
[O-][I+3]([O-])([O-])O [Periodic acid] | 122 °C
CCOc1ccc(NC(C)=O)cc1 [Phenacetin] | 135 °C
CCC1(c2ccccc2)C(=O)NC(=O)NC1=O [Phenobarbital] | 176 °C
CNC[C@H](O)c1cccc(O)c1 [Phenylephrine] | 142 °C
O=C(NC(C(=O)O)c1ccccc1)OCC(Cl)(Cl)Cl (stereo not drawn) [Phenyl{[(2,2,2-trichloroethoxy)carbonyl]amino}acetic acid] | 142 °C
O=C(O)c1ccccc1C(=O)O [Phthalic Acid] | 230 °C
O=c1[nH]c2ccccc2n1C1CCN(CCCC(c2ccc(F)cc2)c2ccc(F)cc2)CC1 [Pimozide] | 216 °C
CN1/C(=C(\O)Nc2ccccn2)C(=O)c2ccccc2S1(=O)=O [Piroxicam] | 198 °C
CC(Cc1ccccc1)NCCC(c1ccccc1)c1ccccc1 (stereo not drawn) [Prenylamine] | 36.5 °C
CCCN(CCC)S(=O)(=O)c1ccc(C(=O)O)cc1 [Probenecid] | 195 °C
CC(=O)[C@H]1CC[C@H]2[C@@H]3CCC4=CC(=O)CC[C@]4(C)[C@H]3CC[C@]12C [Progesterone] | 121 °C
N#Cc1ccc2c(c1)N(CCCN1CCC(O)CC1)c1ccccc1S2 [Propericiazine] | 116 °C
CCC(=O)O [Propionic acid] | -20.8 °C
CCCOC(=O)c1ccc(O)cc1 [Propyl 4-hydroxybenzoate] | 96.5 °C
CCCOC(C)=O [Propyl Acetate] | -93 °C
CCCOC(C)=O [Propyl acetate] | -95 °C
C=CC [Propylene] | -185 °C
NCCCCN [Putrescine] | 27.5 °C
NC(=O)c1cnccn1 [Pyrazinamide] | 192 °C
c1cc2ccc3cccc4ccc(c1)c2c34 [Pyrene] [listing 1 of 2 here] | 151 °C
c1cc2ccc3cccc4ccc(c1)c2c34 [Pyrene] [listing 2 of 2 here] | 150 °C
[O-][n+]1ccccc1S [Pyridine-2-thiol 1-oxide] | 70.5 °C
Cc1ncc(COP(=O)(O)O)c(C=O)c1O [Pyridoxal Phosphate] | 205 °C

Compound | melting point
Oc1ccccc1O [Pyrocatechol] | 105 °C
Oc1cccc2cccnc12 [Quinolin-8-ol] | 76 °C
Oc1cccc(O)c1 [Resorcinol] | 111 °C
Cc1ccc(S(=O)(=O)N=S(C)(C)=O)cc1 [S,S-dimethyl-N-(p-toluenesulfonyl)sulfoximine] | 168 °C
O=C(O)c1ccccc1O [Salicyclic acid] | 158 °C
O=C(O)c1ccccc1O [Salicylic acid] | 161 °C
CC(C)(C)NC(=O)[C@@H]1CC2CCCCC2CN1C[C@@H](O)[C@H](Cc1ccccc1)NC(=O)[C@H](CC(N)=O)NC(=O)c1ccc2ccccc2n1 (stereo partly drawn) [Saquinavir] | 350 °C
CCC(C)(C)C(=O)O[C@H]1C[C@@H](C)C=C2C=C[C@H](C)[C@H](CC[C@@H]3C[C@@H](O)CC(=O)O3)[C@H]21 [Simvastatin] | 136 °C
CC(=O)S[C@@H]1CC2=CC(=O)CC[C@]2(C)[C@H]2CC[C@@]3(C)[C@@H](CC[C@@]34CCC(=O)O4)[C@H]12 [Spironolactone] | 134 °C
O=C(O)CCC(=O)O [Succinic acid] | 186 °C
CC(=O)NS(=O)(=O)c1ccc(N)cc1 [Sulfacetamide] | 183 °C
COc1cc(NS(=O)(=O)c2ccc(N)cc2)nc(OC)n1 [Sulfadimethoxine] | 204 °C
Cc1ccnc(NS(=O)(=O)c2ccc(N)cc2)n1 [Sulfamerazine] | 235 °C
COc1ccc(NS(=O)(=O)c2ccc(N)cc2)nn1 [Sulfamethoxypyridazine] | 182 °C
COc1nccnc1NS(=O)(=O)c1ccc(N)cc1 [Sulfametopyrazine] | 170 °C
O=C(O)CS [Sulfanylacetic acid] | -16.5 °C
Cc1cc(NS(=O)(=O)c2ccc(N)cc2)nc(C)n1 [Sulfisomidine] | 243 °C
Cc1noc(NS(=O)(=O)c2ccc(N)cc2)c1C [Sulfisoxazole] | 194 °C
O=S(=O)(O)O [Sulfuric acid] | -2 °C
O=C5\C=C4/C(C3CCC2(C(CCC2OC(=O)c1ccccc1)C3CC4)C)(C)CC5 (stereo not drawn) [Testosterone benzoate] | 195 °C
C=CCCCCCCCCCCCC [Tetradec-1-ene] | -13 °C
C1CCSC1 [Tetrahydrothiophene] | -96 °C
O=C1CCC(N2C(=O)c3ccccc3C2=O)C(=O)N1 (stereo not drawn) [Thalidomide] | 270 °C
Cn1c(=O)c2[nH]cnc2n(C)c1=O [Theophylline] | 270 °C
CNC(=O)N(C)c1nnc(C(F)(F)F)s1 [Thiazafluron] | 136 °C
O=c1c2ccccc2sc2ccccc12 [Thioxanthen-9-one] | 211 °C

Compound | melting point
CCCCNC(=O)NS(=O)(=O)c1ccc(C)cc1 [Tolbutamide] | 128 °C
Cc1cccc(Nc2ccncc2S(=O)(=O)NC(=O)NC(C)C)c1 [Torasemide] | 164 °C
C[C@]12C=CC(=O)C=C1CC[C@H]1[C@@H]3C[C@@H](O)[C@](O)(C(=O)CO)[C@@]3(C)C[C@H](O)[C@@]12F [Triamcinolone] | 276 °C
CCCCOB(OCCCC)OCCCC [Tributyl borate] | -70 °C
CCCCP(CCCC)CCCC [Tributylphosphine] | -60 °C
CCCCCCCCCCCCCCCCCCCCCCC [Tricosane] | 49 °C
O=C(O)C(F)(F)C(F)(F)C(F)(F)C(F)(F)C(F)(F)C(F)(F)F [Tridecafluoroheptanoic acid] | 30 °C
CCOP(=O)(OCC)OCC [Triethyl phosphate] | -56 °C
O=S(=O)(O)C(F)(F)F [Trifluoromethanesulfonic acid] | -40 °C
O=P(Oc1ccccc1)(Oc1ccccc1)Oc1ccccc1 [Triphenyl phosphate] | 50.5 °C
c1ccc(P(c2ccccc2)c2ccccc2)cc1 [Triphenylphosphine] | 80.5 °C
CCCCC(CC)COP(=O)(OCC(CC)CCCC)OCC(CC)CCCC (stereo not drawn) [Tris(2-ethylhexyl) phosphate] | -70 °C
Cc1ccccc1OP(=O)(Oc1ccccc1C)Oc1ccccc1C [Tris(2-methylphenyl) phosphate] | -33 °C
CC(C)(C)OC(=O)NCC(=O)N(Cc1ccco1)C(C(=O)NCc1ccccc1)c1ccccc1 (stereo not drawn) [Ugi product 108C (UC)] | 147 °C
CN(C)c1ccc(C(C(=O)NC(C)(C)C)N(C)C(=O)CCCc2ccc3ccc4cccc5ccc2c3c45)cc1 (stereo not drawn) [Ugi product 171K (UC)] | 194 °C
CCCCNC(=O)C(c1cc(OC)cc(OC)c1)N(Cc1ccccc1)C(=O)C#Cc1ccccc1 (stereo not drawn) [Ugi product 173G (UC)] | 138 °C
CCCCCCCCCCCO [Undecan-1-ol] | 11 °C
CCCCCCCCCCC(=O)O [Undecanoic acid] | 28.5 °C
CCCCC#N [Valeronitrile] | -96 °C
O=C1O[C@H]([C@@H](O)CO)C(O)=C1O [Vitamin C] | 191 °C
c1ccc2c(c1)Cc1ccccc1O2 [Xanthene] | 101 °C
c1cc2ccc1CCc1ccc(cc1)CC2 [[2.2]paracyclophane] | 286 °C
O=C(O)CSc1ccc(C(F)(F)F)cc1 [[4-(trifluoromethyl)phenylthio]acetic acid] | 116 °C
C/C(=C(/C)c1ccccc1)c1ccccc1 [[(1E)-1-Methyl-2-phenyl-1-propenyl]benzene] | 65 °C
ClCc1cccc(CCl)c1 [a,a'-dichloro-m-xylene] | 36 °C
ClC(Cl)c1ccccc1 [a,a-dichlorotoluene] | -16 °C

Compound | melting point
CC(=NNC(=O)c1ccncc1)c1ccco1 [a-Methylfurfurylidenehydrazide of Isonicotinic Acid] | 199 °C
CCCC(=O)Nc1ccc(OCC(O)CNC(C)C)c(C(C)=O)c1 (stereo not drawn) [acebutolol] | 119 °C
CCC(Br)(CC)C(=O)NC(=O)NC(C)=O [acecarbromal] | 109 °C
CCOC(C)OCC [acetaldehyde diethyl acetal] | -100 °C
CC(N)=O [acetamide] | 80 °C
CC(=O)Nc1ccc(OC(=O)c2ccccc2O)cc1 [acetaminosalol] | 187 °C
CC(=O)OC(C)=O [acetic anhydride] | -73 °C
CC(=O)c1ccc(S(=O)(=O)NC(=O)NC2CCCCC2)cc1 [acetohexamide] | 188 °C
CC(C)=NO [acetone oxime] | 62 °C
CC(=O)Cl [acetyl chloride] | -112 °C
C=CC(N)=O [acrylamide] | 84 °C
C=CC(=O)O [acrylic acid] | 13 °C
C=CC(=O)O [acrylic_acid] | 13 °C
Nc1nc2c(ncn2COCCO)c(=O)[nH]1 [acyclovir] | 255 °C
O=C(O)C12CC3CC(CC(C3)C1)C2 [adamantane-1-carboxylic acid] | 175 °C
Nc1ncnc2c1ncn2[C@@H]1O[C@H](CO)[C@@H](O)[C@H]1O [adenosine] | 234 °C
O=C(CS(=O)C(c1ccccc1)c1ccccc1)NO (stereo not drawn) [adrafinil] | 159 °C
CN(C)CC(=O)N1c2ccccc2Sc2ccccc21 [ahistan] | 144 °C
C=CCOc1ccc(CC(=O)O)cc1Cl [alclofenac] [listing 1 of 2 here] | 92.5 °C
C=CCOc1ccc(CC(=O)O)cc1Cl [alclofenac] [listing 2 of 2 here] | 92 °C
C=CCc1cc(OC)c(O)c(C(=O)NCCO)c1 [alibendol] | 95 °C
CC(C)(C(=O)O)c1ccccc1 [alpha,alpha-dimethylphenylacetic acid] | 81 °C
OC[C@H]1O[C@H](O)[C@H](O)[C@@H](O)[C@@H]1O [alpha-D-Glucopyranose] | 154 °C
CC(=O)OC[C@H]1O[C@H](OC(C)=O)[C@H](OC(C)=O)[C@@H](OC(C)=O)[C@@H]1OC(C)=O [alpha-D-glucose pentaacetate] | 111 °C
O=C(O)C(F)c1ccccc1 (stereo not drawn) [alpha-fluorophenylacetic acid] | 80 °C
